The record followed here is US20060258581A1, “Methods and composition for derepressions of IAP-inhibited caspase” (priority 2001, published 2006).

The EC50 is the concentration needed to bring the measured effect to its halfway point. What is called IC50 is the midpoint of a concentration-inhibition curve. High values mean weaker potency, low ones greater potency. Usually Kd stands for the free concentration of one partner at which half of the binding sites on the other are occupied at equilibrium, for simple one-to-one binding.

Series [1] deals with NCI panel of 60 tumor cell lines. As to the kind of experiment: NCI panel of 60 tumor cell lines, 48 hours, protein-based colorimetric assay. On the set-up: species or system human. How it is done:
Selected polyphenylurea compounds were tested on the National Cancer Institute (NCI) panel of 60 tumor cell lines (see FIG. 28a and FIG. 29).

A further series concerns the target full length XIAP (Homo sapiens, UniProt P98170). The series can be described thus: Potency of IAP antagonists in vitro (Table VIII; caspase derepression / SMAC competition with full length XIAP).
A further series has as its system Jurkat leukemia cells. The series can be described thus: Jurkat leukemia cell death, Annexin V/propidium iodide flow cytometry. The format is cell-based. As to conditions: Homo sapiens, Jurkat, 20 h, 20 hours, read-out: % nonviable cells. How it is done: (§1) The following assay was used to test the ability of individual compounds from the TPI 1396 and TPI 1391 libraries to induce apoptosis of cultured tumor cell lines. Each of the compounds listed in Table IX was individually added to Jurkat leukemia cells (6.25×10^5 cells/mL) in RPMI containing 2.5% FBS at various concentrations for 20 hours. After incubation, cells were washed and stained with FITC-conjugated Annexin V antibody and propidium iodide (Biovision; Mountain View, Calif.). Cells were incubated for 20 minutes at room temperature in the dark and fluorescence was measured by flow cytometry (FACScan, Immunocytometry system; Becton-Dickinson; San Jose, Calif.). Cells staining positive for Annexin V were deemed non-viable.
(§2) The TPI I396-34 and TPI 1391-28 compounds were further tested as set forth below.
A general note: A flow cytometer gives signals particle by particle.

Series [2] deals with caspase-3 and caspase-7 activity in Jurkat cells. As to the kind of experiment: Caspase-3 and caspase-7 activity in whole Jurkat cells, cell permeable substrate. The format is cell-based. The following applies: 8 μM, 20 hours.
Another series concerns the target T1, XIAP-inhibited caspase-3 (Homo sapiens, UniProt P98170).
T1 construct: in a caspase derepression assay using full length XIAP; made in house; host or cells: bacteria
The series can be described thus: IAP derepression assay: Ac-DEVD-AFC hydrolysis by caspase-3 in the presence of GST-XIAP. The format is biochemical. How it is done: The ratio of Vmax for hydrolysis of Ac-DEVD-AFC in the presence and absence of the candidate mixture was calculated and used to identify those that contain an agent that derepresses an IAP-inhibited caspase.
Each mixture was aliquoted in a 25 microliter volume and in duplicate to a well of a 96 well microtiter plate. […] Fluorescence of liberated AFC was immediately detected from each well for 30 minutes at 30 second intervals. The Vmax for hydrolysis of AC-DEVD-AFC from each well was measured using the softmax software package.

For series [3], the system named is chronic lymphocytic leukemia (CLL) B-cells. As to the kind of experiment: Freshly isolated CLL B-cells from patients, annexin-V/propidium iodide. As to conditions: 20-24 hours. The format is cell-based, human. The source says:
(§3) Since many tumor and leukemia cell lines proliferate faster than normal cells, it was investigated whether the polyphenylurea compounds could induce apoptosis of non-replicating malignant cells. […] Thus, cell replication is not required for sensitivity to the disclosed poly-phenylurea compounds.

Series [4] has as its system acute myelogenous leukemia (AML) blasts. As to the kind of experiment: Freshly isolated AML leukemic blasts from patients, annexin-V. The format is cell-based, human. As to conditions: 20-24 hours.
Description: as §3

In series [5] the test system is ALVA31 prostate cancer cells. The series can be described thus: ALVA31 prostate cancer cell viability (XTT dye-reduction, trypan blue). The format is cell-based. The following applies: 24 hrs; peptides 40 μM, VP-16 100 μM. How it is done: The in vivo effects of TPI 792-33 or TPI 792-35, either individually or in combination with the cytotoxic anticancer drug VP-16 (etoposide), on derepression of XIAP-inhibited caspase and viability of ALVA31 cells was determined as follows. ALVA31 prostate cancer cells were seeded onto 96 well plates (10^4 cells/well) in 100 μL RPMI containing 2.5% fetal bovine serum (FBS). […] After another 24 hrs-incubation, cell viability was measured by the XTT dye-reduction assay (Roche, Molecular Biochemicals; Indianapolis, Ind.) and trypan blue dye exclusion assay.
A general note: Tetrazolium dyes change colour on reduction, which living cells bring about.

Series [6] deals with mouse embryo fibroblasts (MEFs) from XIAP -/- mice. As to the kind of experiment: Mouse embryo fibroblasts from XIAP -/- and wild type mice, MTT assay. The format is cell-based. The following applies: non-transformed versus SV40 large T transformed MEFs. How it is done: Cells were either tested directly at low passage (FIGS. 38A and C) or after transformation by infection with a retrovirus encoding SV40 large T antigen (FIGS. 38B and D). […] Cell viability was measured by MTT assay, expressing data as a percentage relative to control, untreated cells. Data shown in FIG. 38A-D represent mean±standard deviation of triplicate determinations.

A further series deals with Smac-7 mer/XIAP-BIR2. The series can be described thus: Competition assay Smac-7 mer/XIAP-BIR2 IC-50 uM | AVG.
A short description of series [7]: Jurkat leukemia cell death, Annexin V/propidium iodide flow cytometry. Type of series: cell-based. The following applies: human, 20 hours, read-out: % nonviable cells. How it is done:
as §1, §2

A further series has as its target T2, caspase-3 (Homo sapiens, UniProt P42574).
T2 construct: made in house; host or cells: bacteria
As to the kind of experiment: Caspase assay without XIAP (candidate mixture and caspase 3 only). The following applies: TPI 1239 library, absence of XIAP. The format is biochemical. How it is done: Caspase activity was assayed by release of 7-amino-4-trifluoromethyl-coumarin (AFC) from Ac-DEVD-AFC synthetic peptides using a Molecular Devices Spectromax 340 (see Zhou et al., J. Biol. Chem. 272:7797-7800 (1997)). […] The ratio of Vmax for hydrolysis of Ac-DEVD-AFC in the presence and absence of the candidate mixture was calculated and used to identify those that contain an agent that derepresses an IAP-inhibited caspase.
Screening of each mixture from the DCR390, TPI 1239 or TPI 1328 library, respectively, using the above described assay was carried out as follows. Each mixture was aliquoted in a 25 microliter volume and in duplicate to a well of a 96 well microtiter plate. […] Fluorescence of liberated AFC was immediately detected from each well for 30 minutes at 30 second intervals. The Vmax for hydrolysis of AC-DEVD-AFC from each well was measured using the softmax software package.
Results of the screen for the DCR390 library are shown in Table I. Sets of mixtures having the same position fixed with different respective amino acids are arranged in 6 sections identified with the position number. […] The mixtures in each section are arranged in descending order according to apparent velocity in the second column.

For series [8], the target named is BIR3RING (XIAP fragment) (human) (UniProt P98170). As to the kind of experiment: fluorescence polarization; 20 nM rhodamine-SMAC, BIR3RING titrated. On the technique in general: Polarisation of emitted light reports the rotation of a fluorescent probe.
BIR3RING (XIAP fragment) (human), sequence (P98170 243-497 limits assumed): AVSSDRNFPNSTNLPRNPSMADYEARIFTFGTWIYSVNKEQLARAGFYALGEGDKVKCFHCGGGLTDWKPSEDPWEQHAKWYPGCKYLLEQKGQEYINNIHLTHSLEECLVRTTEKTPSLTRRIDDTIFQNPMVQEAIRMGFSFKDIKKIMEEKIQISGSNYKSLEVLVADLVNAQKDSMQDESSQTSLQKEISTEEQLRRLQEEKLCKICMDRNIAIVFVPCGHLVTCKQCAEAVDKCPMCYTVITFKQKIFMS
In series [9] the target is GST-BIR2 (glutathione-S-transferase-BIR2 fusion protein of XIAP) (human) (UniProt P98170). The series can be described thus: fluorescence polarization; 20 nM rhodamine-SMAC, GST-BIR2 0 to 495 nM.
GST-BIR2 (glutathione-S-transferase-BIR2 fusion protein of XIAP) (human), sequence (P98170 124-240): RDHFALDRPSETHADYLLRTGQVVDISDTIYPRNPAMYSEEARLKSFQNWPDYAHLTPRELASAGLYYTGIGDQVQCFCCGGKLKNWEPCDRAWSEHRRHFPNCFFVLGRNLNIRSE
Another series addresses GST-XIAP (human) (UniProt P98170). As to the kind of experiment: cell-based or functional assay.

Where no end group is shown, it is not given here. [ ]: non-standard residue; d: D form. d2Nal = N[C@H](Cc1ccc2ccccc2c1)C(=O)O

T1 sequence (P98170 whole entry): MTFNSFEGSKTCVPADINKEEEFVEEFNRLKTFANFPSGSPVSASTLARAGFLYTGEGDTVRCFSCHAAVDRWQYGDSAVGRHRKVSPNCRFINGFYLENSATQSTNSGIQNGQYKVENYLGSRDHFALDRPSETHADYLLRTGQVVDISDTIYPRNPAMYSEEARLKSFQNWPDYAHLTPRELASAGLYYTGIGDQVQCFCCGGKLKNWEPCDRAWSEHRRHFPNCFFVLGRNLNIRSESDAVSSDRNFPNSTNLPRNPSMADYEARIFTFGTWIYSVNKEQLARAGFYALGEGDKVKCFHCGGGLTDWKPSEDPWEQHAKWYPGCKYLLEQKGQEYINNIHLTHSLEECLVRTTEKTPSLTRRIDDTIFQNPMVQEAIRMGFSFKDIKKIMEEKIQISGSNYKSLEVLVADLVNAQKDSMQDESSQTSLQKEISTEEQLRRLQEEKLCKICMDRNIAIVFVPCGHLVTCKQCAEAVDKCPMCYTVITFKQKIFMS
T2 sequence (P42574 29-175 limits assumed): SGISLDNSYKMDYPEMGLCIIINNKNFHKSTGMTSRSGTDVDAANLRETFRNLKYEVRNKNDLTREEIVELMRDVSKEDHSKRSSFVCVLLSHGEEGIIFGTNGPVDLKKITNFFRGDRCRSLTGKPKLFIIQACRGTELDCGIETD
T2 sequence (P42574 176-277 limits assumed): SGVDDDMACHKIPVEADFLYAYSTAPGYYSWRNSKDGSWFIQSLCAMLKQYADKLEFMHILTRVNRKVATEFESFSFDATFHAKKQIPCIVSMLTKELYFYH
full length XIAP, sequence (P98170 whole entry): as the sequence (P98170 whole entry) above
GST-XIAP (human), sequence (P98170 whole entry): as above

Regarding `CCCC[C@@H](CN(C(=O)Nc1ccccc1)[C@@H](CNC(=O)Nc1ccccc1)CC1CCCCC1)N(CCc1ccc(O)cc1)C(=O)Nc1ccccc1` [TPI 1396-28], in series [1], the “average (mean) LD50 for the 60 cell lines” value is above 70 µM. This molecule yielded an EC50 on full length XIAP above 134000 nM. Also, the cytotoxicity at 1 µM in the series on Jurkat leukemia cells (1 μM) turned out to be 13%. In addition, the cytotoxicity at 10 µM in the series on Jurkat leukemia cells (10 μM) came out at 13%. The cytotoxicity at 25 µM with Jurkat leukemia cells (25 μM) was 14%. Also, the cytotoxicity at 50 µM in the series on Jurkat leukemia cells (50 μM) came to 13%. For the same molecule, in series [2], the “caspase activation in whole cells” value was “did not induce caspase activation”. On XIAP-inhibited caspase-3 (XIAP derepression assay), the “Activity* (relative caspase-3 activity: Vmax in the presence of compound / Vmax of controls having caspase-3 and XIAP)” value is 1.3. The “activity in the caspase derepression assay using full length XIAP” value on XIAP-inhibited caspase-3 (in words) was “inactive analog”. In addition, the apoptosis induction result in series [3] and in [4] was “did not induce apoptosis” each time.
In the case of `COc1cc([C@@H]2c3cc4c(cc3[C@@H](O[C@@H]3O[C@@H]5CO[C@@H](C)O[C@H]5[C@H](O)[C@H]3O)[C@H]3COC(=O)[C@H]23)OCO4)cc(OC)c1O` [VP-16, etoposide, reference compound], the “average (mean) LD50 for the 60 cell lines” value in [1] worked out at 200 ± 2.5 µM. Besides, the “cell viability, compound alone” value in series [5] is given as “essentially no effect”.
Consider `COc1cccc2c1C(=O)c1c(O)c3c(c(O)c1C2=O)C[C@@](O)(C(C)=O)C[C@@H]3O[C@H]1C[C@H](N)[C@H](O)[C@H](C)O1` [daunorubicin], for which, in series [6], the “selectivity for transformed cells” value was “do not display selectivity for transformed cells”.
Regarding “(D-Trp)-(D-Trp)-(L-Trp)-(D-Nal) ([dW][dW]W[d2Nal]) [TPI 1332-24]”, the IC50 in the series with Smac-7 mer/XIAP-BIR2 came out at 5000 ± 4800 nM.
On to “H-AVPIAQK-NH2 [SMAC, H-Ala-Val-Pro-Ile-Ala-Gln-Lys-NH2, reference compound]”, for which the cytotoxicity at 20 hours, 5 µM in series [7] (5 μM) amounted to 12%. Further, the cytotoxicity at 20 hours, 25 µM in series [7] (25 μM) was 16%. In [7] (50 μM), the cytotoxicity at 20 hours, 50 µM is around 16%. Further, the cytotoxicity at 20 hours, 100 µM in series [7] (100 μM) is 15%. On XIAP-inhibited caspase-3 (TPI 1239 library), the “Vmax(mix + casp3 + XIAP) / Vmax(casp3 + XIAP)” value worked out at 3.8 ± 1.7. For the same molecule, the “Vmax(mix + casp3) / Vmax(casp3)” value at caspase-3 was determined as 0.8 ± 0.0.
Turning to “rhodamine labeled SMAC (rhodamine-SMAC) (peptide)”, the Kd stood at 80 nM in series [8] and 100 nM in series [9].
Consider H-AVPIAQK-NH2 [SMAC peptide (H-Ala-Val-Pro-Ile-Ala-Gln-Lys-NH2)], for which, in the series with GST-XIAP (human), the Vmax(mix + casp3 + XIAP)/Vmax(casp3 + XIAP) worked out at 3.8.
